Measurements: article PMC4084896 (PLoS ONE, 2014)
In brackets after ≈: the same amount, converted by molar mass.

Columns and labels:
[1] = biological target: T1, glucocorticoid receptor (GR) (Homo sapiens, UniProt P04150); experiment: GR gene reporter assay in AZ-GR cells, antagonist mode (DEX 100 nM); format: cell-based; details: 24 h
T1 sequence (P04150 1-777): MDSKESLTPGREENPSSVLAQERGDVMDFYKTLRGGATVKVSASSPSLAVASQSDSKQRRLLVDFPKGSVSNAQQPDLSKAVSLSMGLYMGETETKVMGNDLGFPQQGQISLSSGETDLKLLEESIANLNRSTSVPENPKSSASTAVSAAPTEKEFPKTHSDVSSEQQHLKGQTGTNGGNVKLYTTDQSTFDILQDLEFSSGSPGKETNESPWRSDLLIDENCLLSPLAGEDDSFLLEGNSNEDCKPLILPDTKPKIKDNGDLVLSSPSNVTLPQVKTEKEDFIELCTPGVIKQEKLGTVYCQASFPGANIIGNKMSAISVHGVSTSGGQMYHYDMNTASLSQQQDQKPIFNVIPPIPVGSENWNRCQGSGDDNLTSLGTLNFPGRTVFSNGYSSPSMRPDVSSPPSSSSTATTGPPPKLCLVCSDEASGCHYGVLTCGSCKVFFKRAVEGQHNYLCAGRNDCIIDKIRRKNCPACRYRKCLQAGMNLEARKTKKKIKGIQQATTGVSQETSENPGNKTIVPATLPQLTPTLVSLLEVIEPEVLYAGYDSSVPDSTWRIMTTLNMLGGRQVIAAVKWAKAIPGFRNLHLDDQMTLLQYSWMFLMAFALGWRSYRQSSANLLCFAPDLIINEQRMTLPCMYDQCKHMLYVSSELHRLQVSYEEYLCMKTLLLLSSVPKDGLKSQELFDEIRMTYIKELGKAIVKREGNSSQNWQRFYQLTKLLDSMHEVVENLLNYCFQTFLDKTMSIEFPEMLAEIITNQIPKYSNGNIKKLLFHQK
Source text: (§1) A stably transfected gene reporter cell line AZ-AHR, derived from human hepatoma HepG2 cells transfected with a construct containing several AhR binding sites upstream of a luciferase reporter gene, was used for assessment of AhR transcriptional activity. A stably transfected gene reporter cell line AZ-GR, derived from human cervix carcinoma HeLa cells transfected with a construct containing several GR response elements upstream of a luciferase reporter gene, was used for assessment of GR transcriptional activity. Cells were incubated for 24 h with tested compounds and/or vehicle (DMSO; 0.1% v/v), in the presence or absence of TCDD (5 nM; AZ-AHR cells) or DEX (100 nM; AZ-GR cells). After the treatments, cells were lysed and luciferase activity was measured. In parallel, cell viability was determined by conventional MTT test.
(§2) There is multiple evidence for the role of glucocorticoid receptor (GR) in regulation of AhR activity. […] Gene reporter assays were performed in agonist and antagonist mode (similarly as described in section 3.1.).

[2] = test system: tyrosine aminotransferase (TAT) mRNA; experiment: TAT mRNA in HepG2 cells (qRT-PCR); format: cell-based, human; details: HepG2, 1, 30, 50 µM, 24 h
AhR = biological target: T2, AhR (Mus musculus, UniProt P30561); experiment: EMSA with nuclear extracts from Hepa-1c1c7 cells (AhR-ARNT-DRE complex); format: cell-based; details: Hepa-1c1c7 nuclear extracts, 50 µM, 2 h
T2 construct: endogenous in cells; host or cells: mouse hepatoma Hepa-1c1c7 cells (living cells treated 2 h, then nuclear extracts made)
Description: Electrophoretic mobility shift assay was performed in guinea pig cytosol and nuclear extract from mouse hepatoma cells. Hepa-1c1c7 cells were incubated for 2 h with tested compounds. Nuclear extracts procedure and EMSA analysis was performed as previously described (Soshilov & Denison; 2014). Guinea pig hepatic cytosol (8 mg/mL in HEDG) was incubated for 2 h in a room temperature water bath with tested compounds. An aliquot of the reaction was mixed with poly[dI•dC] and [^32P]-DRE (100.000 cpm), and AHR:DRE:[^32P]DRE complexes were resolved by gel retardation analysis, visualized by autoradiography and quantified by phosphorimager analysis (FujiFilm) of the dried gels.
We carried out the electrophoretic mobility shift assay (EMSA) to reveal whether effects of KET on AhR-CYP1A pathway involve transformation of AhR to DNA binding form, and whether these effects are enantiospecific. For this purpose, EMSA was performed in two experimental systems: (i) Hepatic guinea pig cytosol was treated for 2 hours with DMSO, 20 nM TCDD, (+)-KET, (−)-KET and commercial rac-KET (from Sigma) at 10 µM, 30 µM and 50 µM. All forms of KET transformed AhR to DNA binding form, but the activation was very weak and not statistically above background. There was a slightly stronger effect of (+)-KET and rac-KET as compared to (−)-KET, but the difference was not significant (Figure 4A). (ii) Since we obtained only weak signals in guinea pig liver cytosols, we also analyzed nuclear extracts from mouse hepatoma Hepa-1c1c7 cells treated for 2 hours with DMSO, TCDD (10 nM), (+)-KET (50 µM), (−)-KET (50 µM), commercial rac-KET (Sigma; 50 µM) or an equimolar mix of (+)/(−) enantiomers (50 µM total). […] The effects of (−)-KET were slightly stronger as compared to (+)-KET. […] In addition, we observed formation of the second band with lower molecular weight than AhR-ARNT-DRE, by purified KET enantiomers but not by TCDD and commercial KET.

[3] = biological target: T3, aryl hydrocarbon receptor AhR (Homo sapiens, UniProt P35869); experiment: AhR gene reporter assay in AZ-AHR cells, antagonist mode (TCDD 5 nM); format: cell-based; details: 24 h, in the presence of TCDD 5 nM
T3 construct: endogenous in cells; host or cells: AZ-AHR (stably transfected reporter line derived from HepG2)
T3 sequence (P35869 11-848): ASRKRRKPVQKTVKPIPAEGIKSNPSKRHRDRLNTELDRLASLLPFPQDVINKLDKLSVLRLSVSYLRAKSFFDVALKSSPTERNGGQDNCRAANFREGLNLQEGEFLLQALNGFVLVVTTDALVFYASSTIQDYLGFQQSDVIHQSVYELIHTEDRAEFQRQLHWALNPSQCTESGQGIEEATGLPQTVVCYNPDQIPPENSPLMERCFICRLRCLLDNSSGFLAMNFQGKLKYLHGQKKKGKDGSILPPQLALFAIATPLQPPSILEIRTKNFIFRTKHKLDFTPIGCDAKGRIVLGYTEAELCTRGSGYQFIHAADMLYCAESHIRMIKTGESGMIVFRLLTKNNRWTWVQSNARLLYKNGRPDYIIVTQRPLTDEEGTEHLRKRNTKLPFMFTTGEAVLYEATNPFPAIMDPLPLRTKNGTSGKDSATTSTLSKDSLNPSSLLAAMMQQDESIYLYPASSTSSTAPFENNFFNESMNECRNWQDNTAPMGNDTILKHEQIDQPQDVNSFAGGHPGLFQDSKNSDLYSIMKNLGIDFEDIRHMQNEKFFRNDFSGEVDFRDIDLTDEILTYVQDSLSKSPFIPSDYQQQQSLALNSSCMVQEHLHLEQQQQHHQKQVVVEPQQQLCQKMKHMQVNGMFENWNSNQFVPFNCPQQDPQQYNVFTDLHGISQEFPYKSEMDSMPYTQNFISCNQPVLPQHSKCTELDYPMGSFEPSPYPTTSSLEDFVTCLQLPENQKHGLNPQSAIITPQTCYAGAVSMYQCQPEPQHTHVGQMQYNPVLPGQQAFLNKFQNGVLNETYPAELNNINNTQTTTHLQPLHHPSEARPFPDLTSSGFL
Source text: as §1
(§3) Gene reporter assays were performed in two different experimental layouts. In agonist mode, cells were treated with increasing concentrations of tested compounds, and the half-maximal effective concentrations (EC50) were calculated.

[4] = MTT cytotoxicity test in AZ-AHR cells; format: cell-based, human; details: human; 24 h incubation, six passages; read-out: AZ-AHR viability - MTT IC50
Source text: as §1
Prior to the agonist or antagonist experiments, the cytotoxicity of tested compounds was assessed using the conventional MTT assay. […] The vehicle was DMSO (0.1% v/v). After the treatment, a MTT test was performed.

[5] = MTT cytotoxicity test in primary human hepatocytes; format: cell-based; details: primary human hepatocytes, read-out: viability, % of control value
Source text: as §1
The cells were treated for 24 h with (+)-KET, (−)-KET and commercial rac-KET (1 µM, 30 µM, 50 µM), and with TCDD (5 nM) and vehicle (DMSO; 0.1% V/V). […] In the cytotoxicity assay, we found all forms of KET highly toxic against human hepatocytes at the concentration 50 µM.

[6] = biological target: T1, glucocorticoid receptor (GR); experiment: GR gene reporter assay in AZ-GR cells, agonist mode; format: cell-based
Source text: as §1, §2

AZ-GR cells = experiment: MTT cytotoxicity test in AZ-GR cells; format: cell-based, human; details: Homo sapiens; 24 h incubation; read-out: AZ-GR viability - MTT IC50
Source text: as §1, §2

[7] = biological target: T3, aryl hydrocarbon receptor AhR; experiment: AhR gene reporter assay in AZ-AHR cells, agonist mode; format: cell-based
Source text: as §1, §3

C. albicans 978 = experiment: MIC assessment, microdilution; format: cell-based; details: Candida albicans
Description: (§4) Antifungal activity was assessed using the standard microdilution method determining the minimum inhibitory concentrations (MICs) of the tested samples leading to inhibition of yeast growth. Disposable microtiter plates were used for the tests. The samples were diluted in brain heart infusion broth (HiMedia). […] C. albicans, C. krusei, C. tropicalis and C. parapsilosis. […] Subsequently, 100 µL were transferred into the first microplate well and serially diluted by a factor of 2. The prepared microplates were inoculated with a standard amount of the tested Candida spp. – the inoculum density in a well was equal to 10^5 CFU/mL. […] The minimum fungicidal concentration (MFC) is the minimum concentration of the sample required to kill the yeast after a defined period of incubation. The MFCs were determined by the inoculation method. With an applicator, 10 µL were transferred from the microplate wells with defined concentrations of the tested sample and inoculated onto Sabouraud agar (Trios). The MFC was determined as the lowest concentration that inhibited the visible growth of the used yeast. For growth curve assessment, the samples were serially diluted in 96-well microtiter plates. […] Absorbance (630 nm) was measured every hour during 24 hours and the obtained values were used to plot growth curves

C. albicans 1 = experiment: MIC assessment, microdilution; format: cell-based; details: Candida albicans
Description: as §4

C. krusei 094 = experiment: MIC assessment, microdilution; format: cell-based; details: Pichia kudriavzevii
Description: as §4

C. tropicalis 5 = experiment: MIC assessment, microdilution; format: cell-based; details: Candida tropicalis
Description: as §4

C. krusei 3 = experiment: MIC assessment, microdilution; format: cell-based; details: Pichia kudriavzevii
Description: as §4

C. parapsilosis 6 = experiment: MIC assessment, microdilution; format: cell-based; details: Lodderomyces parapsilosis
Description: as §4

T2 sequence (P30561 10-805 limits assumed): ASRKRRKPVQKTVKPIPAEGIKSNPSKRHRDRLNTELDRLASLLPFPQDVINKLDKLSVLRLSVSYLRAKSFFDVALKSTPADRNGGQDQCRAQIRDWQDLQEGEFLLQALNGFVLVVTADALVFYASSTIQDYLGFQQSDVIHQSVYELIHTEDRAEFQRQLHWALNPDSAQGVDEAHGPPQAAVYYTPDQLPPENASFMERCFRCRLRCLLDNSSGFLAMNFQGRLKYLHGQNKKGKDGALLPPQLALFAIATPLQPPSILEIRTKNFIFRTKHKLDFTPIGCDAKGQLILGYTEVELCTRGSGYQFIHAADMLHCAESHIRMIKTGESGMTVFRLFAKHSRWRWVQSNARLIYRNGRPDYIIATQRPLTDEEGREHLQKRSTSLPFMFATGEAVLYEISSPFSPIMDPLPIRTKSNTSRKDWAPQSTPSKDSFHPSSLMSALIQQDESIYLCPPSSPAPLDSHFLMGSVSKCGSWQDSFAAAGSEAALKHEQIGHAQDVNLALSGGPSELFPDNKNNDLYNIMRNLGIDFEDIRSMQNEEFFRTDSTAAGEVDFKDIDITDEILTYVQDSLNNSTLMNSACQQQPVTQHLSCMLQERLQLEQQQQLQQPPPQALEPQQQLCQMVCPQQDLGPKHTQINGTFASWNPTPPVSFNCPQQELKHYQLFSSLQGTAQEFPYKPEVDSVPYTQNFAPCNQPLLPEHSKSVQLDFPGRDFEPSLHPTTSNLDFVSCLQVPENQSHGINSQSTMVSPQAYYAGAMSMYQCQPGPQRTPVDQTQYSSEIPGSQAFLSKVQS
T2 sequence (P53762 whole entry partner): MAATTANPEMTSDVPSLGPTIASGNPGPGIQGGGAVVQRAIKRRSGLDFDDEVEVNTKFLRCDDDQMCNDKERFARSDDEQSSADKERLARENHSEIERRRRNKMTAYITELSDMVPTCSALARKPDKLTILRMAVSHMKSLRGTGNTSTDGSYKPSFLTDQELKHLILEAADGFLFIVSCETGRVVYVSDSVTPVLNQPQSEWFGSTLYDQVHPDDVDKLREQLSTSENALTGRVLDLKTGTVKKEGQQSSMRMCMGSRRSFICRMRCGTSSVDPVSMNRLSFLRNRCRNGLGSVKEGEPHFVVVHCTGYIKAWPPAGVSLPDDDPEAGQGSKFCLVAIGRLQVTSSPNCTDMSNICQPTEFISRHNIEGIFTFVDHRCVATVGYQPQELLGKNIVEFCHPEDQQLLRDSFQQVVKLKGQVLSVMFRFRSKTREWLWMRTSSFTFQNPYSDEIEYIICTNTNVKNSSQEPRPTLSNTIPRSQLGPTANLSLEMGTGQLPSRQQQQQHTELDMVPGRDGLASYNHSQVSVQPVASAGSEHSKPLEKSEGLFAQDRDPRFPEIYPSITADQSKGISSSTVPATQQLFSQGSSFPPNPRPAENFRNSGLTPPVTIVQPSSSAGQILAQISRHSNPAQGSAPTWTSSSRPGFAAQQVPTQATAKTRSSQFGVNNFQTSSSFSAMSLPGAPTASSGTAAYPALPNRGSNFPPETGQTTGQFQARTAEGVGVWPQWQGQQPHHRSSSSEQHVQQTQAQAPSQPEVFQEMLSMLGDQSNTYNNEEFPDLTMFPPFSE

| Structure (SMILES) | MIC (C. albicans 978) | MIC (C. albicans 1) | MIC (C. krusei 094) | MIC (C. tropicalis 5) | MIC (C. krusei 3) | MIC (C. parapsilosis 6) | transformation of AhR to DNA binding form (in words) (AhR) | also measured |
| --- | --- | --- | --- | --- | --- | --- | --- | --- |
| CC(=O)N1CCN(c2ccc(OC[C@@H]3CO[C@@](Cn4ccnc4)(c4ccc(Cl)cc4Cl)O3)cc2)CC1 [(−)-KET, (2S,4R)-(−)-KET] | – | – | – | – | – | – | only weakly transformed | IC50 ([1]; in the presence of DEX 100 nM): 26.7 ± 3.7 µM; TAT mRNA induction (in words) [2]: strong, concentration-dependent induction; IC50 [3]: 17.5 ± 1.7 µM; IC50 at 24 h [4]: 72.7 ± 27.3 µM; viability at 24 h, 50 µM [5]: 37%; increase of luciferase activity, agonist mode ([6]; up to / at 100 µM, 24 h): did not induce luciferase activity; IC50 (AZ-GR cells): 71.6 ± 27.5 µM; AZ-AHR gene reporter - agonist efficacy [7]: 5,2 ± 3,2%; EC50 ([7]; 24 h, agonist mode): 2.2 µM |
| CC(=O)N1CCN(c2ccc(OCC3COC(Cn4ccnc4)(c4ccc(Cl)cc4Cl)O3)cc2)CC1 (racemic) [racemic KET obtained by mixing pure (+)-KET and pure (−)-KET in ratio 1∶1] | – | – | – | – | – | – | much weaker and comparable with individual enantiomers | antagonist effect in titration experiment (in words) ([1]; final concentration 50 µM, DEX 100 nM): much stronger as compared to commercial rac-KET |
| C[C@@H]1C[C@H]2[C@@H]3CCC4=CC(=O)C=C[C@]4(C)[C@@]3(F)[C@@H](O)C[C@]2(C)[C@@]1(O)C(=O)CO [DEX, dexamethasone] | – | – | – | – | – | – | – | average induction of GR-dependent luciferase activity ([6]; 100 nM DEX, four passages): 70 fold |

More lines, main results first:

| MIC (C. albicans 978) | MIC (C. albicans 1) | MIC (C. krusei 094) | MIC (C. tropicalis 5) | MIC (C. krusei 3) | MIC (C. parapsilosis 6) | Structure (SMILES) | transformation of AhR to DNA binding form (in words) (AhR) | also measured |
| --- | --- | --- | --- | --- | --- | --- | --- | --- |
| 1.5 µg/mL (≈ 4.9 µM) | 0.38 µg/mL (≈ 1.24 µM) | 32 µg/mL (≈ 104 µM) | 6 µg/mL (≈ 19.6 µM) | 48 µg/mL (≈ 157 µM) | 2 µg/mL (≈ 6.53 µM) | OC(Cn1cncn1)(Cn1cncn1)c1ccc(F)cc1F [Fluconazole, fluconazole] | – | – |
| 0.016 µg/mL (≈ 0.0458 µM) | 0.016 µg/mL (≈ 0.0458 µM) | 0.19 µg/mL (≈ 0.544 µM) | 0.19 µg/mL (≈ 0.544 µM) | 0.19 µg/mL (≈ 0.544 µM) | 0.023 µg/mL (≈ 0.0658 µM) | C[C@@H](c1ncncc1F)[C@](O)(Cn1cncn1)c1ccc(F)cc1F [Voriconazole, voriconazole] | – | – |
| 0.064 µg/mL (≈ 0.0913 µM) | 0.094 µg/mL (≈ 0.134 µM) | 0.25 µg/mL (≈ 0.357 µM) | 0.19 µg/mL (≈ 0.271 µM) | 0.19 µg/mL (≈ 0.271 µM) | 0.032 µg/mL (≈ 0.0457 µM) | CC[C@@H]([C@H](C)O)n1ncn(-c2ccc(N3CCN(c4ccc(OC[C@@H]5CO[C@@](Cn6cncn6)(c6ccc(F)cc6F)C5)cc4)CC3)cc2)c1=O [Posaconazole, posaconazole] | – | – |
